Consider six compounds from US10596173B2, “Combination therapy of an HBV capsid assembly inhibitor and an interferon” (Hoffmann-La Roche Inc., priority 2015, dated 2020).

pEC50: −log10 of the molar value. Where “and” joins values, the source holds several entries; their conditions need not be identical. Identical values can stand only once.

The test system of data set [1] is HBV. The data set is described as follows: Combination study with Roferon in HBV infected HepaRG cells: HBV DNA in supernatant by qPCR, CalcuSyn and isobologram analysis. In kind it is cell-based, HBV (genotype D). The following applies: for Overall CI: average of CI at 50%, 75% and 90%; for pEC50: Hepatitis B virus, HepaRG. As to the method:
HepG2.2.15 cells were cultured in DMEM+Glutamax I medium (Gibco, #21885) supplemented with 10% FBS, 1% Pen/Strep (Gibco, #15140) and G-418 ([…]) and used for production of infectious HBV (genotype D). 90% confluent cells from three T175 flasks were trypsinized and transferred into one collagen coated hyperflask (550 mL). Once the cells were confluent, medium was changed to DMEM+Glutamax I medium with 1% DMSO and 2.5% FBS. Once the cells were slightly over confluent, medium was changed to DMEM/F12+Glutamax I medium (Gibco, #31331) supplemented with MEM non-essential aminoacids (6 mL, Gibco, #11140), P/S (6 mL), sodium pyruvate (6 mL), DMSO (9 mL) and FBS (10 mL) (all per 500 mL medium). Medium was changed every 3 days and supernatants were harvested for 2 weeks. Virus was concentrated from supernatants by PEG precipitation and the titer (genome equivalent (GE)/mL) was determined by qPCR. Briefly, supernatants were mixed with 40% PEG solution at a ratio of 4:1, incubated on a shaker at 4° C. overnight and then centrifuged using 50 mL falcon tubes at 4° C. for one hour at 3724 g (RCF). The supernatant was discarded and the centrifugation step was repeated with new supernatant reusing the tubes until all PEG-precipitated supernatant was processed. The pellets were re-suspended in William's E Medium (Gibco, #22551) at a concentration of 10^7-10^9 genome equivalents (GE) per ml and frozen at −80° C. DNA copy number calculation was based on a standard curve generated from HBV plasmid dilutions with known concentrations.
HepaRG cells (Biopredic International, Saint-Gregoire, France) were cultured in working growth medium (500 mL Willams E Medium with 50 mL HepaRG Growth supplement from Biopredic, 5 mL Glutamax-I (Gibco, #35050) and 5 mL Pen/Strep) for 2 weeks. After 2 weeks, medium was changed to differentiation medium containing 1.8% DMSO (500 mL Willams E Medium with 50 mL HepaRG Growth supplement from Biopredic, 5 mL Pen/Strep, 5 mL Glutamax-I and 9 mL DMSO). Medium was changed twice a week up to 2 weeks. Once fully differentiated, cells were trypsinized and seeded into collagenated 96-well plates (50,000 cells/well in 100 μL) or 24-well plates (300,000 cells/well in 500 μL) in differentiation medium. Cells were cultured at least 5 days in the plates before they were infected with HBV.
The combination experimental results were analyzed using the model described by Craig et al. (Craig J, Duncan I, Whittaker L and Roberts N. (1990). Antiviral synergy between inhibitors of HIV proteinase and reverse transcriptase. Antiviral Chem. Chemother. 4:161-166). EC50 values were obtained for compounds used alone and in combination with others. To relate these two values and describe the degree of synergy/additivity/antagonism between them, the Fractional Inhibitory Concentration (FIC) was first calculated and used to generate isobolograms. Briefly, the FIC is the ratio of the EC50 of the drug in combination to the EC50 of the drug on its own: FIC=ratio[EC50combination:EC50alone]
The Combination Index (CI), obtained by adding the FICs of the two compounds, was then used to describe the effect between compounds used in the combinations. A CI<1 means synergism, a CI=1 means additivity and a CI>1 means antagonism.
Each experiment was performed in at least triplicate and performed independently 3 times. Mean percent inhibition of HBV replication based on DNA copy number was calculated from all experiments and analyzed using the Calcusyn software (CalcuSyn Version 2.11, Biosoft, Cambridge, UK) based on the Loewe additivity model described by Chou and Talalay (Chou T C (2006). Theoretical basis, experimental design, and computerized simulation of synergism and antagonism in drug combination studies. Pharmacol. Rev., 58:621-681). For the CalcuSyn evaluation, data from three diagonal lanes with a constant concentration ratio for the drug combinations of each lane from the checkerboard plate were used (marked in bold in Table 2). […]

Data set [2] concerns HBV. Conditions: HBV infected transgenic mouse model or humanized mouse models; cited from earlier work.
Data set [3] concerns HBV infected HepaRG cells. In words: CellTiter-Glo cell viability assay of HBV infected and treated HepaRG cells. In kind it is cell-based. Conditions: individual compound at maximum concentration, day 11 post infection. As to the method:
Cell viability of the HBV infected and treated HepaRG cells was determined at day 11 post infection using the CellTiter-Glo® Luminescent Cell Viability Assay (Promega, Cat. No. G7572). 100 μL of CTG reagent were added to each well of the cells, incubated for 10 min and 80 μL of each well were transferred to a new white 96 well plate. Luminescence (0.2 sec) was measured using an Envision reader (PerkinElmer).

Setting [4] is: CalcuSyn, HBV DNA, molar ratio 1:0.3.
Where [5] appears, read: CalcuSyn, HBV DNA, molar ratio 1:1.
[6] abbreviates: CalcuSyn, HBV DNA, molar ratio 1:3.
The mark [7] stands for this setting: individual compound, HBV infected HepaRG cells, HBV DNA, mean of n independent experiments.

In the case of `Nc1ccn([C@@H]2CS[C@H](CO)O2)c(=O)n1` [3TC and 3TC], the “CI value at 50% HBV inhibition” value in the data set with HBV [1] (setting [4]) is listed as 1.12 ± 0.24; in the data set with HBV [1] (setting [5]) it was 0.98 ± 0.12; with HBV [1] (setting [6]) it was 1.02 ± 0.22. Besides, the “CI value at 75% HBV inhibition” value in the data set on HBV [1] (setting [4]) is listed as 1.05 ± 0.16; in the data set with HBV [1] (setting [5]), 1.00 ± 0.14; with HBV [1] (setting [6]) it was 1.03 ± 0.22. The “CI value at 90% HBV inhibition” value is 1.02 ± 0.11 with HBV [1] (setting [4]), 1.06 ± 0.11 in the data set with HBV [1] (setting [5]) and 1.08 ± 0.21 in the data set with HBV [1] (setting [6]). The “Overall CI” value in the data set on HBV [1] (CalcuSyn, molar ratio 1:0.3) was 1.06 ± 0.16; in the data set with HBV [1] (CalcuSyn, molar ratio 1:1), 1.02 ± 0.11; in the data set with HBV [1] (CalcuSyn, molar ratio 1:3), 1.04 ± 0.19. For the same compound, the “Assessment of combination effect” value in the data set with HBV [1] (CalcuSyn, based on overall CI values) is reported as “additivity”.
As for `COC(=O)C1=C(C)NC(c2ncc(F)cc2F)=N[C@H]1c1ccc(F)cc1Cl` [Bay 41-4109], the in vivo efficacy entry in the data set on HBV [2] is “demonstrated in vivo efficacy with HBV DNA reduction”.
Take `COC(=O)C1=C(CN2CCOC[C@H]2C(=O)O)N=C(c2nccs2)N[C@H]1c1ccc(F)cc1Cl` [Compound 1, (S)-4-[(R)-6-(2-Chloro-4-fluoro-phenyl)-5-methoxycarbonyl-2-thiazol-2-yl-3,6-dihydro-pyrimidin-4-ylmethyl]-morpholine-3-carboxylic acid]: in data set [3], the “% cell viability at max concentration ± SD (n)” value is recorded as 96.8 ± 4.2 (3) %. Also, the pEC50 in the data set with HBV [1] (setting [7]) was 7.67.
Consider `Nc1ccn([C@@H]2CS[C@H](CO)O2)c(=O)n1` [Compound 3TC, Lamivudine], for which, in data set [3], the “% cell viability at max concentration ± SD (n)” value was 86.4 ± 2.6 (3) % and 104.5 ± 2.6 (3) %. Further, the negative logarithm of the EC50 (pEC50) in the data set with HBV [1] (setting [7]) was 7.89.
As to `CCOC(=O)C1=C(CN2CCN3C(=O)N(CC(C)(C)C(=O)O)C[C@@H]3C2)NC(c2nccs2)=N[C@H]1c1cccc(F)c1C` [Compound 4, 3-[(8aS)-7-[[(4S)-5-ethoxycarbonyl-4-(3-fluoro-2-methyl-phenyl)-2-thiazol-2-yl-1,4-dihydropyrimidin-6-yl]methyl]-3-oxo-5,6,8,8a-tetrahydro-1H-imidazo[1,5-a]pyrazin-2-yl]-2,2-dimethyl-propanoic acid], the “% cell viability at max concentration ± SD (n)” value in data set [3] is 96.1 ± 14.5 (3) %. Further, in the data set on HBV [1] (setting [7]), the pEC50 is 8.06.
For the compound interferon alfa-2a [Roferon], in the data set on HBV [1] (setting [7]), the “EC50 ± SD (n)” value is 0.9 IU/mL ± 0.5 (3) and 1.8 IU/ml ± 1.7 (3) IU/mL.
